Results from patent publication US7138361B2, “Herbicidal heterocycles” (E. I. du Pont de Nemours and Company, priority 2000, dated 2006).

Experiments:
Assay type in all cases: in vivo
[1] = test system: duck salad (Heteranthera limosa); test: Test C flooded paddy test; conditions: for Ducksalad plant response rating: Flooded Paddy, scale 0 to 100, 0 no effect, 100 complete control; for Plant response rating, Ducksalad: flooded paddy test, scale 0 to 100 (0 no effect, 100 complete control)
Outline: (§1)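 Visually assessed vs untreated controls 12–14 d post-treatment (greenhouse). Flooded paddy plants were at the 2-leaf stage; scale 0 = no effect, 100 = complete control.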

[2] = test system: smallflower flatsedge (Cyperus difformis); test: Test C flooded paddy test; conditions: for Flatsedge plant response rating: Flooded Paddy, scale 0 to 100, 0 no effect, 100 complete control; for Plant response rating, Flatsedge: flooded paddy test, scale 0 to 100 (0 no effect, 100 complete control)
Outline: as §1

[3] = test system: barnyardgrass (Echinochloa crus-galli); test: Test C flooded paddy test; conditions: for Barnyardgrass plant response rating: Flooded Paddy, scale 0 to 100, 0 no effect, 100 complete control; for Plant response rating, Barnyardgrass: flooded paddy test, scale 0 to 100 (0 no effect, 100 complete control)
Outline: as §1

rice (Oryza saliva) [4] = test: Test C flooded paddy test; conditions: for Rice plant response rating: Flooded Paddy, scale 0 to 100, 0 no effect, 100 complete control; for Plant response rating, Rice: flooded paddy test, scale 0 to 100 (0 no effect, 100 complete control)
Outline: as §1

[5] = test system: crabgrass (Digitaria sanguinalis); test: Test B preemergence
Excerpt: (§2) Seeds selected from barnyardgrass (Echinochloa crus-galli), Surinam grass (Brachiaria decumbens), cocklebur (Xanthium strumarium), corn (Zea mays), crabgrass (Digitaria sanguinalis), giant foxtail (Setaria faberii), lambsquarters (Chenopodium album), morning glory (Ipomoea hederacea), pigweed (Amaranthus retroflexus), rice (Oryza saliva) and velvetleaf (Abutilon theophrasti) were planted and treated preemergence with test chemicals formulated in a non-phytotoxic solvent mixture which included a surfactant.
(§3) At the same time, plants selected from these crop and weed species and also blackgrass (Alopecurus myosuroides), wheat (Triticum aestivum) and wild oat (Avena fatua) were treated with postemergence applications of test chemicals formulated in the same manner. Plants ranged in height from 2 to 18 cm (1- to 4-leaf stage) for postemergence treatments. Plant species in the flooded paddy test consisted of rice (Oryza saliva), smallflower flatsedge (Cyperus difformis), duck salad (Heteranthera limosa) and barnyardgrass (Echinochloa crus-galli) grown to the 2-leaf stage for testing. Treated plants and controls were maintained in a greenhouse for 13 to 15 days, after which time all species were compared to controls and visually evaluated. Plant response ratings, summarized in Table B, are based on a scale of 0 to 100 where 0 is no effect and 100 is complete control. A dash (-) response means no test result.

[6] = test system: cocklebur (Xanthium strumarium); test: Test B preemergence
Excerpt: as §2, §3

[7] = test system: Surinam grass (Brachiaria decumbens); test: Test B preemergence
Excerpt: as §2, §3

[8] = test system: morning glory (Ipomoea hederacea); test: Test B preemergence
Excerpt: as §2, §3

[9] = test system: velvetleaf (Abutilon theophrasti); test: Test B preemergence
Excerpt: as §2, §3

[10] = test system: pigweed (Amaranthus retroflexus); test: Test B preemergence
Excerpt: as §2, §3

[11] = test system: lambsquarters (Chenopodium album); test: Test B preemergence
Excerpt: as §2, §3

corn (Zea mays) [12] = test: Test B preemergence
Excerpt: as §2, §3

[13] = test system: giant foxtail (Setaria faberii); test: Test B preemergence
Excerpt: as §2, §3

[14] = test system: barnyardgrass (Echinochloa crus-galli); test: Test B preemergence
Excerpt: as §2, §3

rice (Oryza saliva) [15] = test: Test B preemergence
Excerpt: as §2, §3

[16] = test system: crabgrass (Digitaria sanguinalis); test: Test B postemergence; conditions: 13 to 15 days
Excerpt: as §2, §3

[17] = test system: wheat (Triticum aestivum); test: Test B postemergence; conditions: 13 to 15 days
Excerpt: as §2, §3

[18] = test system: cocklebur (Xanthium strumarium); test: Test B postemergence; conditions: 13 to 15 days
Excerpt: as §2, §3

[19] = test system: Surinam grass (Brachiaria decumbens); test: Test B postemergence; conditions: 13 to 15 days
Excerpt: as §2, §3

[20] = test system: morning glory (Ipomoea hederacea); test: Test B postemergence; conditions: 13 to 15 days
Excerpt: as §2, §3

wild oat (Avena fatua) = test: Test B postemergence; conditions: 13 to 15 days
Excerpt: as §2, §3

[21] = test system: velvetleaf (Abutilon theophrasti); test: Test B postemergence; conditions: 13 to 15 days
Excerpt: as §2, §3

[22] = test system: pigweed (Amaranthus retroflexus); test: Test B postemergence; conditions: 13 to 15 days
Excerpt: as §2, §3

[23] = test system: lambsquarters (Chenopodium album); test: Test B postemergence; conditions: 13 to 15 days
Excerpt: as §2, §3

corn (Zea mays) [24] = test: Test B postemergence; conditions: 13 to 15 days
Excerpt: as §2, §3

[25] = test system: blackgrass (Alopecurus myosuroides); test: Test B postemergence; conditions: 13 to 15 days
Excerpt: as §2, §3

[26] = test system: giant foxtail (Setaria faberii); test: Test B postemergence; conditions: 13 to 15 days
Excerpt: as §2, §3

[27] = test system: barnyardgrass (Echinochloa crus-galli); test: Test B postemergence; conditions: 13 to 15 days
Excerpt: as §2, §3

[28] = Preemergence, Rate 500 g/ha, scale 0 to 100, 0 no effect, 100 complete control
[29] = preemergence, Rate 125 g/ha, scale of 0 to 100 where 0 is no effect and 100 is complete control, 13 to 15 days
[30] = Rate 125 g/ha, scale 0 (no effect) to 100 (complete control)
[31] = Rate 500 g/ha, scale 0 to 100, 0 is no effect, 100 is complete control

CC(C)(C)c1ccn(C2CCN(c3cccc(OC(F)(F)C(F)F)c3)C2=O)n1 (centres unmarked) [Compound 48]
Ducksalad plant response rating ([1]; Rate 250 g/ha): 70
Ducksalad plant response rating ([1]; Rate 500 g/ha): 90
Plant response rating, Ducksalad ([1]; Rate 62 g/ha): 0
Plant response rating, Ducksalad ([1]; Rate 125 g/ha): 20
Flatsedge plant response rating ([2]; Rate 250 g/ha): 100
Flatsedge plant response rating ([2]; Rate 500 g/ha): 100
Plant response rating, Flatsedge ([2]; Rate 62 g/ha): 90
Plant response rating, Flatsedge ([2]; Rate 125 g/ha): 90
Barnyardgrass plant response rating ([3]; Rate 250 g/ha): 100
Barnyardgrass plant response rating ([3]; Rate 500 g/ha): 100
Plant response rating, Barnyardgrass ([3]; Rate 62 g/ha): 20
Plant response rating, Barnyardgrass ([3]; Rate 125 g/ha): 40
Rice plant response rating (rice (Oryza saliva) [4]; Rate 250 g/ha): 20
Rice plant response rating (rice (Oryza saliva) [4]; Rate 500 g/ha): 50
Plant response rating, Rice (rice (Oryza saliva) [4]; Rate 62 g/ha): 0
Plant response rating, Rice (rice (Oryza saliva) [4]; Rate 125 g/ha): 0
Plant response rating, Crabgrass [5, 28]: 80
Plant response rating, Crabgrass [5, 29]: 0
Plant response rating, Cocklebur [6, 28]: 0
Plant response rating, Cocklebur [6, 29]: 0
Plant response rating, Surinam grass [7, 28]: 0
Plant response rating, Surinam grass [7, 29]: 0
Plant response rating, Morningglory [8, 28]: 0
Plant response rating, Morningglory [8, 29]: 0
Plant response rating, Velvetleaf [9, 28]: 0
Plant response rating, Velvetleaf [9, 29]: 0
Plant response rating, Pigweed [10, 28]: 0
Plant response rating, Pigweed [10, 29]: 0
Plant response rating, Lambsquarters [11, 28]: 100
Plant response rating, Lambsquarters [11, 29]: 100
Plant response rating, Corn (corn (Zea mays) [12]; [28]): 0
Plant response rating, Corn (corn (Zea mays) [12]; [29]): 0
Plant response rating, Foxtail, Giant [13, 28]: 0
Plant response rating, Foxtail, Giant [13, 29]: 0
Plant response rating, Barnyardgrass [14, 28]: 0
Plant response rating, Barnyardgrass [14, 29]: 0
Plant response rating, Rice (rice (Oryza saliva) [15]; [28]): 0
Plant response rating, Rice (rice (Oryza saliva) [15]; [29]): 0
Plant response rating, Crabgrass [16, 30]: 0
Plant response rating, Crabgrass [16, 31]: 0
Plant response rating, Wheat [17, 30]: 0
Plant response rating, Wheat [17, 31]: 0
Plant response rating, Cocklebur [18, 30]: 0
Plant response rating, Cocklebur [18, 31]: 0
Plant response rating, Surinam grass [19, 30]: 0
Plant response rating, Surinam grass [19, 31]: 0
Plant response rating, Morningglory [20, 30]: 0
Plant response rating, Morningglory [20, 31]: 0
Plant response rating, Wild Oat (wild oat (Avena fatua); [30]): 0
Plant response rating, Wild Oat (wild oat (Avena fatua); [31]): 0
Plant response rating, Velvetleaf [21, 30]: 0
Plant response rating, Velvetleaf [21, 31]: 0
Plant response rating, Pigweed [22, 30]: 0
Plant response rating, Pigweed [22, 31]: 0
Plant response rating, Lambsquarters [23, 30]: 0
Plant response rating, Lambsquarters [23, 31]: 80
Plant response rating, Corn (corn (Zea mays) [24]; [30]): 0
Plant response rating, Corn (corn (Zea mays) [24]; [31]): 0
Plant response rating, Blackgrass [25, 30]: 0
Plant response rating, Blackgrass [25, 31]: 0
Plant response rating, Foxtail, Giant [26, 30]: 0
Plant response rating, Foxtail, Giant [26, 31]: 0
Plant response rating, Barnyardgrass [27, 30]: 0
Plant response rating, Barnyardgrass [27, 31]: 0

Cc1c(F)cc(N2CCC(n3ccc(C(C)(C)C)n3)C2=O)cc1Br (centres unmarked) [Compound 78]
Ducksalad plant response rating ([1]; Rate 250 g/ha): 0
Ducksalad plant response rating ([1]; Rate 500 g/ha): 0
Plant response rating, Ducksalad ([1]; Rate 62 g/ha): 0
Plant response rating, Ducksalad ([1]; Rate 125 g/ha): 0
Flatsedge plant response rating ([2]; Rate 250 g/ha): 0
Flatsedge plant response rating ([2]; Rate 500 g/ha): 90
Plant response rating, Flatsedge ([2]; Rate 62 g/ha): 0
Plant response rating, Flatsedge ([2]; Rate 125 g/ha): 0
Barnyardgrass plant response rating ([3]; Rate 250 g/ha): 0
Barnyardgrass plant response rating ([3]; Rate 500 g/ha): 60
Plant response rating, Barnyardgrass ([3]; Rate 62 g/ha): 0
Plant response rating, Barnyardgrass ([3]; Rate 125 g/ha): 0
Rice plant response rating (rice (Oryza saliva) [4]; Rate 250 g/ha): 0
Rice plant response rating (rice (Oryza saliva) [4]; Rate 500 g/ha): 0
Plant response rating, Rice (rice (Oryza saliva) [4]; Rate 62 g/ha): 0
Plant response rating, Rice (rice (Oryza saliva) [4]; Rate 125 g/ha): 0
Plant response rating, Crabgrass [5, 28]: 30
Plant response rating, Crabgrass [5, 29]: 0
Plant response rating, Cocklebur [6, 28]: 0
Plant response rating, Cocklebur [6, 29]: 0
Plant response rating, Surinam grass [7, 28]: 0
Plant response rating, Surinam grass [7, 29]: 0
Plant response rating, Morningglory [8, 28]: 0
Plant response rating, Morningglory [8, 29]: 0
Plant response rating, Velvetleaf [9, 28]: 0
Plant response rating, Velvetleaf [9, 29]: 0
Plant response rating, Pigweed [10, 28]: 100
Plant response rating, Pigweed [10, 29]: 80
Plant response rating, Lambsquarters [11, 28]: 100
Plant response rating, Lambsquarters [11, 29]: 100
Plant response rating, Corn (corn (Zea mays) [12]; [28]): 0
Plant response rating, Corn (corn (Zea mays) [12]; [29]): 0
Plant response rating, Foxtail, Giant [13, 28]: 10
Plant response rating, Foxtail, Giant [13, 29]: 0
Plant response rating, Barnyardgrass [14, 28]: 90
Plant response rating, Barnyardgrass [14, 29]: 0
Plant response rating, Rice (rice (Oryza saliva) [15]; [28]): 0
Plant response rating, Rice (rice (Oryza saliva) [15]; [29]): 0
Plant response rating, Crabgrass [16, 30]: 0
Plant response rating, Crabgrass [16, 31]: 0
Plant response rating, Wheat [17, 30]: 0
Plant response rating, Wheat [17, 31]: 0
Plant response rating, Cocklebur [18, 30]: 0
Plant response rating, Cocklebur [18, 31]: 20
Plant response rating, Surinam grass [19, 30]: 0
Plant response rating, Surinam grass [19, 31]: 0
Plant response rating, Morningglory [20, 30]: 0
Plant response rating, Morningglory [20, 31]: 0
Plant response rating, Wild Oat (wild oat (Avena fatua); [30]): 0
Plant response rating, Wild Oat (wild oat (Avena fatua); [31]): 0
Plant response rating, Velvetleaf [21, 30]: 0
Plant response rating, Velvetleaf [21, 31]: 0
Plant response rating, Pigweed [22, 30]: 70
Plant response rating, Pigweed [22, 31]: 80
Plant response rating, Lambsquarters [23, 30]: 0
Plant response rating, Lambsquarters [23, 31]: 10
Plant response rating, Corn (corn (Zea mays) [24]; [30]): 0
Plant response rating, Corn (corn (Zea mays) [24]; [31]): 0
Plant response rating, Blackgrass [25, 30]: 0
Plant response rating, Blackgrass [25, 31]: 0
Plant response rating, Foxtail, Giant [26, 30]: 0
Plant response rating, Foxtail, Giant [26, 31]: 0
Plant response rating, Barnyardgrass [27, 30]: 0
Plant response rating, Barnyardgrass [27, 31]: 0
